# Tested on: mutated or wild type K-ras expressing pancreatic carcinoma cells
# Test: Cell growth and viable cell numbers (hemocytometer, MTT)
# Assay type: cell-based, human
# Description: FIG. 5. […] Cells were treated with the indicated agents for three days and viable cell counts were determined by hemocytometer.
# Cell lines, culture conditions and growth assays.
substance,measurement,value
"SC PS ODN: scrambled K-ras PS ODN ACTAGCTATACTAGCTAT (SEQ ID NO:17) (DNA, all phosphorothioate, methylation of C not given here)",growth suppression compared with AS K-ras PS ODN,significantly less growth suppression
"MM PS ODN: mismatched K-ras PS ODN CACTTGCAAATATTCAGT (SEQ ID NO:16) (DNA, all phosphorothioate, methylation of C not given here)",growth suppression compared with AS K-ras PS ODN,significantly less growth suppression
